# Assay results: paper PMC12040169 (PLOS Biology, 2025)
# Assay: in vitro
# Settings: human, hela cells, % viability
row,SMILES,"viability at 28.5 h, 10 µM [%]"
1,O=C1c2ccccc2C(c2ccc(NC(=O)c3cccc4ccccc34)cc2)(c2ccc(NC(=O)c3cccc4ccccc34)cc2)c2ccccc21 [CBK261162],103
2,O=C(Nc1ccc(C2(c3ccc(NC(=O)c4cccc5ccccc45)cc3)c3ccccc3-c3ccccc32)cc1)c1cccc2ccccc12 [CBK261163],102
3,O=C(Nc1ccc(-c2c3ccccc3c(-c3ccc(NC(=O)c4cccc5ccccc45)cc3)c3ccccc23)cc1)c1cccc2ccccc12 [CBK261164],93.6
4,CC(=O)Nc1ccc(-c2nc3cc(-c4nc5ccc(NC(C)=O)cc5[nH]4)ccc3[nH]2)cc1 [CBK261165],91.2
5,O=C(Nc1ccccc1C(=O)O)c1cccc(C(=O)Nc2ccccc2C(=O)O)c1 [CBK261166],105
6,NC(=O)c1ccccc1NC(=O)c1ccc(C(=O)Nc2ccccc2C(N)=O)cc1 [CBK261167],106
7,NC(=O)c1ccccc1NC(=O)c1ccc2ccccc2c1 [CBK261171],90.8
8,COC(=O)CCCNS(=O)(=O)c1ccc([N+](=O)[O-])cc1 [CBK261172],109
9,CCOC(=O)C(C(C)=O)(N1CCOCC1)N1CCOCC1 [CBK261173],90.2
10,Cc1ccc2nc(C(=O)O)cc(C(=O)O)c2c1 [CBK261174],91.6
11,C/C(=N\NC(=O)Cc1ccc([N+](=O)[O-])cc1[N+](=O)[O-])c1ccccc1O [CBK261175],88.8
12,O=C(O)c1ccc2c(c1)C(=O)N(c1cccc(/C=C/C(=O)c3cccc(N4C(=O)c5ccc(C(=O)O)cc5C4=O)c3)c1)C2=O [CBK261178],89.8
13,O=C(O)c1ccc(Oc2cccc([N+](=O)[O-])c2)cc1C(=O)O [CBK261179],110
14,Nc1cccc(Oc2ccc(C(=O)O)c(C(=O)O)c2)c1 [CBK261180],89.4
15,O=C(O)c1cc(NC(=O)c2ccc(Oc3ccc([N+](=O)[O-])cc3)cc2)cc(C(=O)O)c1 [CBK261188],88.6
16,O=C(O)c1ccc(S(=O)(=O)c2ccc3c(c2)C(=O)N(c2nccs2)C3=O)cc1 [CBK261189],90.1
17,O=C1c2ccc(Oc3cccc([N+](=O)[O-])c3)cc2C(=O)N1c1ccccn1 [CBK261190],95.8
18,O=C(O)c1ccc2c(c1)C(=O)N(c1ccc(-c3ccnc(-c4ccc(N5C(=O)c6ccc(C(=O)O)cc6C5=O)cc4)n3)cc1)C2=O [CBK261192],104
19,O=C(O)c1cc(C(=O)O)cc(N2C(=O)C3C4C=CC(C4)C3C2=O)c1 (centres unmarked) [CBK261193],97.5
20,O=C(c1ccc2c(c1)C(=O)N(c1ccncc1)C2=O)c1ccc2c(c1)C(=O)N(c1ccncc1)C2=O [CBK261194],88.5
21,O=C(O)c1ccc2c(c1)C(=O)N(c1ccc(C3(c4ccc(N5C(=O)c6ccc(C(=O)O)cc6C5=O)cc4)c4ccccc4-c4ccccc43)cc1)C2=O [CBK261195],92.2
22,O=C(Nc1ccccc1)c1ccc2c(c1)C(=O)N(c1cccc(N3C(=O)c4ccc(C(=O)Nc5ccccc5)cc4C3=O)n1)C2=O [CBK261197],91.5
23,Cc1ccc(NC(=O)c2ccc3c(c2)C(=O)N(c2cccc(N4C(=O)c5ccc(C(=O)Nc6ccc(C)cc6)cc5C4=O)n2)C3=O)cc1 [CBK261198],90.8
24,O=C(O)c1ccc(Oc2ccc3c(c2)C(=O)N(c2nccs2)C3=O)cc1 [CBK261200],101
25,O=C(Nc1cccc(I)c1)c1ccc(Oc2ccc(C(=O)Nc3cccc(I)c3)cc2)cc1 [CBK261201],92.6
26,O=C(CSCc1cccc(Br)c1)Nc1cccc2cccnc12 [CBK261204],101
27,COc1ccc(/C(C)=N/NC(=O)CSCc2cccc(Br)c2)cc1 [CBK261205],81.4
28,Cc1ccc(C(C)C)cc1OCC(=O)N/N=C\c1cc([N+](=O)[O-])ccc1O [CBK261206],92.6

# Same assay, conditions: human, hela cells, % viability, bulk resorufin, single well
row,SMILES,"viability at 28.5 h, 10 µM [%]"
1,O=C(Nc1ccc(NC(=O)c2cccc([N+](=O)[O-])c2)c(Cl)c1)c1cccc([N+](=O)[O-])c1 [CBK261196],105
